Data reported in ChEMBL document CHEMBL4613212, “Insights of synthetic analogues of anti-leprosy agents” (Bioorg Med Chem, 2019).

Assays:
[1] = test system: Mycobacterium tuberculosis; experiment: Antimycobacterial activity against Mycobacterium tuberculosis H37Rv infected in CF-1 mouse assessed as change in survival time at 24 mg/kg administrated daily for 14 days with food relative to control; type: functional
[2] = test system: Mycobacterium tuberculosis; experiment: Antimycobacterial activity against Mycobacterium tuberculosis H37Rv infected in CF-1 mouse assessed as change in survival time at 8 mg/kg administrated daily for 14 days with food relative to control; type: functional
[3] = test system: Mycobacterium tuberculosis; experiment: Antimycobacterial activity against Mycobacterium tuberculosis H37Rv infected in CF-1 mouse assessed as change in survival time at 4 mg/kg administrated daily for 14 days with food relative to control; type: functional
[4] = test system: Mycobacterium tuberculosis; experiment: Antimycobacterial activity against Mycobacterium tuberculosis H37Rv infected in CF-1 mouse assessed as change in survival time at 42 mg/kg administrated daily for 14 days with food relative to control; type: functional
[5] = Selectivity index, ratio of IC50 for African green monkey Vero cells to MIC for antitubercular activity against Mycobacterium tuberculosis H37Rv; type: toxicity; conditions: vero
[6] = test system: Vero; experiment: Cytotoxicity against African green monkey Vero cells incubated for 72 hrs by MTT assay; type: cell-based, Chlorocebus sabaeus
[7] = test system: Mycobacterium tuberculosis; experiment: Antitubercular activity against Mycobacterium tuberculosis H37Rv ATCC 27294 assessed as growth inhibition at 12.5 ug/ml by microplate alamar blue assay relative to control; type: functional
[8] = test system: Mycobacterium tuberculosis; experiment: Antitubercular activity against Mycobacterium tuberculosis H37Rv ATCC 27294 assessed as inhibition of [3H]-thymidine incorporation relative to control; type: functional
[9] = test system: Mycobacterium leprae; experiment: Anti-leprotic activity against rifampicin-susceptible Mycobacterium leprae subcultures at 4 weeks assessed as ATP level per 10^7 cells at 0.1 mg/L measured by bioluminescence assay (reference value: 425 +/- 64 pg); type: functional
[10] = test system: Mycobacterium leprae; experiment: Anti-leprotic activity against rifampicin-susceptible Mycobacterium leprae primary cultures at 4 weeks assessed as [3H]thymidine uptake per 5 times 10^7 cells at 0.2 mg/L incubated for 24 hrs (reference value: 1.05 +/- 0.16 pmol); type: functional
[11] = test system: Mycobacterium leprae; experiment: Anti-leprotic activity against rifampin-susceptible Mycobacterium leprae infected in BALB/c mouse assessed as ATP level in footpad at 6 mg/kg administered with food daily for 4 weeks by Shepard's kinetic method (reference value: 98%); type: functional
[12] = test system: Mycobacterium leprae; experiment: Anti-leprotic activity against rifampin-susceptible Mycobacterium leprae infected in BALB/c mouse assessed as ATP level per 10^6 Mycobacterium leprae in footpad at 6 mg/kg administered with food daily for 16 weeks by Shepard's kinetic method (reference value: 27.9 +/- 3.60 pg); type: functional
[13] = test system: Mycobacterium leprae; experiment: Anti-leprotic activity against rifampicin-susceptible Mycobacterium leprae primary cultures at 4 weeks assessed as [3H]thymidine uptake per 5 times 10^7 cells at 0.1 mg/L incubated for 24 hrs (reference value: 1.05 +/- 0.16 pmol); type: functional
[14] = Plasma concentration in rifampin-susceptible Mycobacterium leprae infected in BALB/c mouse at 6 mg/kg administered with food daily for 2 weeks by high-pressure liquid chromatography analysis; type: ADME, organism-based; conditions: po
[15] = test system: Mycobacterium leprae; experiment: Anti-leprotic activity against rifampin-susceptible Mycobacterium leprae infected in BALB/c mouse assessed as ATP level per 10^6 Mycobacterium leprae in footpad at 6 mg/kg administered with food daily for 12 weeks by Shepard's kinetic method (reference value: 26.9 +/- 2.90 pg); type: functional
[16] = test system: Mycobacterium leprae; experiment: Anti-leprotic activity against rifampicin-susceptible Mycobacterium leprae primary cultures at 4 weeks assessed as ATP level per 10^7 cells at 0.2 mg/L measured by bioluminescence assay (reference value: 332 +/- 46 pg); type: functional
[17] = test system: Mycobacterium leprae; experiment: Anti-leprotic activity against rifampin-susceptible Mycobacterium leprae infected in armadillo assessed as bacterial counts in footpad at 6 mg/kg administered with food daily for 8 weeks (reference value: 162%); type: functional
[18] = test system: Mycobacterium leprae; experiment: Anti-leprotic activity against rifampin-susceptible Mycobacterium leprae infected in BALB/c mouse assessed as ATP level in footpad at 6 mg/kg administered with food daily for 2 weeks by Shepard's kinetic method (reference value: 109%); type: functional
[19] = Plasma concentration in rifampin-susceptible Mycobacterium leprae infected in BALB/c mouse at 6 mg/kg administered with food daily for 12 weeks by high-pressure liquid chromatography analysis; type: ADME, organism-based; conditions: po
[20] = test system: Mycobacterium leprae; experiment: Anti-leprotic activity against rifampin-susceptible Mycobacterium leprae infected in armadillo assessed as bacterial counts in footpad at 6 mg/kg administered with food daily for 1 week (reference value: 110%); type: functional
[21] = test system: Mycobacterium leprae; experiment: Inhibition of PGL1 synthesis in Mycobacterium leprae infected Swiss Webster mouse macrophages assessed as decrease in [U-14C]PA incorporation at 0.2 uM preincubated for 4 days post infection followed by [U-14C]PA addition and measured after 7 days by liquid scintillation counter analysis relative to control; type: functional
[22] = Plasma concentration in rifampin-susceptible Mycobacterium leprae infected in BALB/c mouse at 6 mg/kg administered with food daily for 8 weeks by high-pressure liquid chromatography analysis; type: ADME, organism-based; conditions: po
[23] = test system: Mycobacterium leprae; experiment: Anti-leprotic activity against rifampin-susceptible Mycobacterium leprae infected in armadillo assessed as bacterial counts in footpad at 6 mg/kg administered with food daily for 2 weeks (reference value: 125%); type: functional
[24] = test system: Mycobacterium leprae; experiment: Anti-leprotic activity against rifampicin-susceptible Mycobacterium leprae primary cultures at 4 weeks assessed as [3H]thymidine uptake per 5 times 10^7 cells at 0.3 mg/L incubated for 24 hrs (reference value: 1.05 +/- 0.16 pmol); type: functional
[25] = test system: Mycobacterium leprae; experiment: Anti-leprotic activity against rifampicin-susceptible Mycobacterium leprae subcultures at 4 weeks assessed as [3H]thymidine uptake per 5 times 10^7 cells at 0.1 mg/L incubated for 24 hrs (reference value: 1.41 +/- 0.20 pmol); type: functional
[26] = Plasma concentration in rifampin-susceptible Mycobacterium leprae infected in BALB/c mouse at 6 mg/kg administered with food daily for 4 weeks by high-pressure liquid chromatography analysis; type: ADME, organism-based; conditions: po
[27] = test system: Mycobacterium leprae; experiment: Anti-leprotic activity against rifampicin-susceptible Mycobacterium leprae subcultures at 4 weeks assessed as ATP level per 10^7 cells at 0.3 mg/L measured by bioluminescence assay (reference value: 425 +/- 64 pg); type: functional
[28] = test system: Mycobacterium leprae; experiment: Anti-leprotic activity against rifampin-susceptible Mycobacterium leprae infected in armadillo assessed as bacterial counts in footpad at 6 mg/kg administered with food daily for 12 weeks (reference value: 190%); type: functional
[29] = Plasma concentration in rifampin-susceptible Mycobacterium leprae infected in BALB/c mouse at 6 mg/kg administered with food daily for 1 week by high-pressure liquid chromatography analysis; type: ADME, organism-based; conditions: po
[30] = test system: Mycobacterium leprae; experiment: Anti-leprotic activity against rifampicin-susceptible Mycobacterium leprae primary cultures at 4 weeks assessed as ATP level per 10^7 cells at 0.1 mg/L measured by bioluminescence assay (reference value: 332 +/- 46 pg); type: functional
[31] = test system: Mycobacterium leprae; experiment: Anti-leprotic activity against rifampicin-susceptible Mycobacterium leprae subcultures at 4 weeks assessed as [3H]thymidine uptake per 5 times 10^7 cells at 0.2 mg/L incubated for 24 hrs (reference value: 1.41 +/- 0.20 pmol); type: functional
[32] = test system: Mycobacterium leprae; experiment: Anti-leprotic activity against rifampin-susceptible Mycobacterium leprae infected in armadillo assessed as bacterial counts in footpad at 6 mg/kg administered with food daily for 4 weeks (reference value: 141%); type: functional
[33] = test system: Mycobacterium leprae; experiment: Anti-leprotic activity against rifampin-susceptible Mycobacterium leprae infected in BALB/c mouse assessed as ATP level per 10^6 Mycobacterium leprae in footpad at 6 mg/kg administered with food daily for 8 weeks by Shepard's kinetic method (reference value: 26.1 +/- 3.7 pg); type: functional
[34] = test system: Mycobacterium leprae; experiment: Anti-leprotic activity against rifampin-susceptible Mycobacterium leprae infected in armadillo assessed as bacterial counts in footpad at 6 mg/kg administered with food daily for 16 weeks (reference value: 226%); type: functional
[35] = test system: Mycobacterium leprae; experiment: Anti-leprotic activity against rifampicin-susceptible Mycobacterium leprae subcultures at 4 weeks assessed as [3H]thymidine uptake per 5 times 10^7 cells at 0.3 mg/L incubated for 24 hrs (reference value: 1.41 +/- 0.20 pmol); type: functional
[36] = test system: Mycobacterium leprae; experiment: Anti-leprotic activity against rifampin-susceptible Mycobacterium leprae infected in BALB/c mouse assessed as ATP level in footpad at 6 mg/kg administered with food daily for 1 week by Shepard's kinetic method (reference value: 102%); type: functional
[37] = test system: Mycobacterium leprae; experiment: Anti-leprotic activity against rifampicin-susceptible Mycobacterium leprae subcultures at 4 weeks assessed as ATP level per 10^7 cells at 0.2 mg/L measured by bioluminescence assay (reference value: 425 +/- 64 pg); type: functional
[38] = test system: Mycobacterium leprae; experiment: Inhibition of PGL1 synthesis in Mycobacterium leprae infected Swiss Webster mouse macrophages assessed as decrease in [U-14C]PA incorporation at 2 uM preincubated for 4 days post infection followed by [U-14C]PA addition and measured after 7 days by liquid scintillation counter analysis relative to control; type: functional
[39] = test system: Mycobacterium leprae; experiment: Anti-leprotic activity against rifampicin-susceptible Mycobacterium leprae primary cultures at 4 weeks assessed as ATP level per 10^7 cells at 0.3 mg/L measured by bioluminescence assay (reference value: 332 +/- 46 pg); type: functional
[40] = test system: Mycobacterium tuberculosis; experiment: Antimycobacterial activity against Mycobacterium tuberculosis H37Rv infected in CF-1 mouse assessed as change in survival time at 850 mg/kg administrated daily for 14 days with food relative to control; type: functional
[41] = test system: Mycobacterium tuberculosis; experiment: Antimycobacterial activity against Mycobacterium tuberculosis H37Rv infected in CF-1 mouse assessed as change in survival time at 6 mg/kg administrated daily for 14 days with food relative to control; type: functional
[42] = test system: Mycobacterium tuberculosis; experiment: Antimycobacterial activity against Mycobacterium tuberculosis H37Rv infected in CF-1 mouse assessed as change in survival time at 2 mg/kg administrated daily for 14 days with food relative to control; type: functional
[43] = test system: Mycobacterium tuberculosis; experiment: Antimycobacterial activity against Mycobacterium tuberculosis H37Rv infected in CF-1 mouse assessed as change in survival time at 25 mg/kg administrated daily for 14 days with food relative to control; type: functional
[44] = test system: Mycobacterium tuberculosis; experiment: Antimycobacterial activity against Mycobacterium tuberculosis H37Rv infected in CF-1 mouse assessed as change in survival time at 11 mg/kg administrated daily for 14 days with food relative to control; type: functional
[45] = test system: Mycobacterium tuberculosis; experiment: Antimycobacterial activity against Mycobacterium tuberculosis H37Rv infected in CF-1 mouse assessed as change in survival time at 41 mg/kg administrated daily for 14 days with food relative to control; type: functional
[46] = test system: Mycobacterium tuberculosis; experiment: Antimycobacterial activity against Mycobacterium tuberculosis H37Rv infected in CF-1 mouse assessed as change in survival time at 5 mg/kg administrated daily for 14 days with food relative to control; type: functional
[47] = test system: Mycobacterium tuberculosis; experiment: Antimycobacterial activity against Mycobacterium tuberculosis H37Rv infected in CF-1 mouse assessed as change in survival time at 12 mg/kg administrated daily for 14 days with food relative to control; type: functional
[48] = test system: Mycobacterium tuberculosis; experiment: Antimycobacterial activity against Mycobacterium tuberculosis H37Rv infected in CF-1 mouse assessed as change in survival time at 3 mg/kg administrated daily for 14 days with food relative to control; type: functional

## COc1ccc(/N=N/c2ccc(NCCCN3CCCCC3)c3c2CCCC3)cc1
[1]
  MST: 26 days
[2]
  MST: 13 days
[3]
  MST: 11 days
[4]
  MST: 50 days

## Clc1nc(-c2ccccc2)c2ncn(Cc3ccccc3)c2n1
[5]
  Selectivity Index: Nd(Insoluble)
[6]
  IC50: Nd(Insoluble)
[7]
  inhibition at 12.5 µg/mL: > 90%
[8]
  inhibition (INH): 76%

## CO[C@H]1/C=C/O[C@@]2(C)Oc3c(C)c(O)c4c(c3C2=O)C2=NC3(CCN(CC(C)C)CC3)NC2=C(NC(=O)/C(C)=C\C=C\[C@H](C)[C@H](O)[C@@H](C)[C@@H](O)[C@@H](C)[C@H](OC(C)=O)[C@@H]1C)C4=O [RIFABUTIN]
[9]
  Activity: 127 pg
[10]
  Activity: 0 pmol
[11]
  Activity: 9%
[12]
  Activity: 0 pg
[13]
  Activity: 0.65 pmol
[14]
  concentration at 336 h: 450 ng/mL
[15]
  Activity: 0 pg
[16]
  Activity: 0 pg
[17]
  Activity: 89%
[18]
  Activity: 21%
[19]
  concentration at 2016 h: 90 ng/mL
[20]
  Activity: 101%
[21]
  inhibition at 0.2 µM: 84%
[22]
  concentration at 1344 h: 52 ng/mL
[23]
  Activity: 98%
[24]
  Activity: 0 pmol
[25]
  Activity: 0 pmol
[26]
  concentration at 672 h: 510 ng/mL
[27]
  Activity: 0 pg
[28]
  Activity: 83%
[29]
  concentration at 168 h: 380 ng/mL
[30]
  Activity: 192 pg
[31]
  Activity: 0.49 pmol
[32]
  Activity: 94%
[33]
  Activity: 0.049 pg
[34]
  Activity: 77%
[35]
  Activity: 0 pmol
[36]
  Activity: 72%
[37]
  Activity: 0 pg
[38]
  inhibition at 2 µM: 96%
[39]
  Activity: 0 pg

## Nc1ccc(C(=O)O)c(O)c1 [AMINOSALICYLIC ACID]
[40]
  MST: 25 days
[3]
  MST: 26 days
[41]
  MST: 52 days
[42]
  MST: 17 days

## c1ccc(/N=N/c2ccc(NCCCN3CCCCC3)c3c2CCCC3)cc1
[43]
  MST: 37 days
[44]
  MST: 13 days
[45]
  MST: 50 days

## COc1ccc(/N=N/c2ccc(NCCCN3CCCCC3)c3c2CCCC3)cn1
[1]
  MST: 46 days
[46]
  MST: 13 days
[47]
  MST: 31 days
[48]
  MST: 10 days
